In patent publication US4446148A, “Benzodioxanyl imidazoline compounds, compositions and use” (priority 1982, dated 1984):
Entries after “also recorded” stand apart in the source; their conditions may differ. Where a name gives a salt, the structure may show the parent alone. Read-outs that look alike come from different tables or passages of the source.

Experiments:
[1] = system: presynaptic α2-adrenoreceptors; test: Presynaptic α2-adrenoreceptor antagonism in the pithed rat: reversal of clonidine block on vas deferens, intravenous; type: in vivo; settings: for i.v. dose of antagonist causing 50% reversal of clonidine block on vas deferens: cumulative i.v. dosing, clonidine 100 μg/kg i.v., mean of minimum 4 rats
Experimental: This test model extends the evaluation of presynaptic α2 -adrenoreceptor antagonism versus clonidine on the rat vas deferens to the in vivo situation. Blood pressure and stimulation induced contractions of the vas deferens were monitored in pithed rats using the method of Brown, J., Doxey, J. C., Handley, S. and Virdee, N., Recent Advances in the Pharmacology of Adrenoceptors, Elsevier North Holland, 1978. Clonidine (100 μg/kg. i.v.) causes a prolonged pressor response and a prolonged inhibition of vas deferens contractions. The test drugs were injected intravenously in a cumulative dosing schedule and their abilities to reverse the inhibition of hypogastric nerve stimulation reflected their presynaptic antagonism.
The results are the mean of a minimum of 4 rats.

[2] = biological target: T1, presynaptic α2-adrenoreceptor (Rattus norvegicus, UniProt P22909); test: Presynaptic α2-adrenoreceptor antagonism versus clonidine on the stimulated rat vas deferens (isolated tissue); settings: for Pre/postsynaptic ratio: presynaptic α2 (vs clonidine, vas deferens) to postsynaptic α1 (vs noradrenaline, anococcygeus) antagonism
T1 construct: on the rat vas deferens stimulated at a frequency of 0.1 Hz; from tissue; host or cells: rat vas deferens
T1 sequence (P22909 1-465): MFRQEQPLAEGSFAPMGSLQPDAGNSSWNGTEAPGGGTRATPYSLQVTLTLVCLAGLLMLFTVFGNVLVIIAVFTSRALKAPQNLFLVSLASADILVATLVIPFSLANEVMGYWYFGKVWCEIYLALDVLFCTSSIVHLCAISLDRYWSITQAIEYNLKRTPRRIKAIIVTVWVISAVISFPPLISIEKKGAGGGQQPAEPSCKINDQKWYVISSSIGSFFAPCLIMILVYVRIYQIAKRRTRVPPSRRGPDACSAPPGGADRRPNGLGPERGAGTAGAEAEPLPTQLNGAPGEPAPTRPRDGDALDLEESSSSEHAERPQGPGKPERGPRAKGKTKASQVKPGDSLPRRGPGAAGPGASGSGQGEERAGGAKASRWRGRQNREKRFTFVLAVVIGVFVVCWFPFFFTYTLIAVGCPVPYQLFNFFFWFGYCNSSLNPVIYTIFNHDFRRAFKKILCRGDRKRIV
From the text: (§1) This in vitro model is particularly useful as an initial screen for studying presynaptic activity in isolation since the physiological nature of the vas deferens tissue is such that the postsynaptic receptors located therein are particularly inaccessible to exogenous agents. In consequence an alternative tissue, the rat anococcygeus muscle is used to establish postsynaptic α1 -adrenoreceptor activity. Antagonism of noradrenaline contractions is used to determine pA2 values at postsynaptic α1 -adrenoreceptors. The ratio of presynaptic α2 -adrenoreceptor antagonism (versus clonidine on the rat vas deferens) to postsynaptic α1 -adrenoreceptor antagonism (versus noradrenaline contractions on the rat anococcygeus muscle) is used to assess adrenoreceptor selectivity.
(§2) The results are the mean of a minimum of 5 experiments.

[3] = biological target: T2, postsynaptic α1-adrenoreceptor (Rattus norvegicus, UniProt P43140); test: Postsynaptic α1-adrenoreceptor antagonism versus noradrenaline contractions of the rat anococcygeus muscle (isolated tissue)
T2 construct: the rat anococcygeus muscle is used to establish postsynaptic α1 -adrenoreceptor activity; from tissue; host or cells: rat anococcygeus muscle
T2 sequence (P43140 1-466): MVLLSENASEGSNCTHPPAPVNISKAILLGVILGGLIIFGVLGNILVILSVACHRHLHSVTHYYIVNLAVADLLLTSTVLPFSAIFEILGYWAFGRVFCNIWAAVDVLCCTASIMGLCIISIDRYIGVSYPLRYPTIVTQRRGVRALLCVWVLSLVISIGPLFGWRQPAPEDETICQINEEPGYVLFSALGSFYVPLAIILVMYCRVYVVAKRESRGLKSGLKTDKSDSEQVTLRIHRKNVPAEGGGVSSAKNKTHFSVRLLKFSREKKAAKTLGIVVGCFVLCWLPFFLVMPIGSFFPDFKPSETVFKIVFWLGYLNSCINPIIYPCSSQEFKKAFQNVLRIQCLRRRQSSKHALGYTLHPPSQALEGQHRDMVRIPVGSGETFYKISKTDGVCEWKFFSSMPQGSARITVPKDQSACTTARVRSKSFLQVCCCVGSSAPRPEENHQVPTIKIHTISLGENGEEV
From the text: as §1, §2

[4] = biological target: T3, α2-binding sites (Rattus norvegicus, UniProt P22909); test: Radioligand competition binding at α2-binding sites labelled by [^3 H]-RX781094 in rat cerebral cortex; settings: for Ki: α2 Ki vs [^3 H]-RX 781094, rat cerebral cortex, 1 nM radioligand, 15 min, 25° C.; for activity of the enantiomers (in words): from Table 4 / testing results
T3 construct: A crude synaptosomal P2 fraction was prepared; from tissue; host or cells: cerebral cortex including hippocampus, male Sprague-Dawley rats, crude synaptosomal P2 fraction
T3 sequence (P22909 1-465): T1 sequence (P22909 1-465)
From the text: The pharmacological activity of the racemic compound (RS) of Example 1 (in formula I R^1 =methyl) has been compared with the activities of the R and S enantiomers.
(§3) Male Sprague-Dawley rats, 250-300 g, were killed by decapitation, the brains quickly removed and the cerebral cortex dissected free from striatal tissue but including the hippocampus. Tissue was homogenized in ice-cold buffered sucrose (20 vols w/v 0.3 M sucrose in Tris/HCl buffer, 0.05 M, pH 7.4) using a Potter-type glass-teflon homogenizer. A crude synaptosomal P2 fraction was prepared and the washed P2 -pellet was resuspended in a physiological salt solution to give a final protein concentration of about 1 mg/ml. The physiological salt solution had the following composition (nM): 118 NaCl, 4.8 KCl, 1.3 CaCl2, 1.2 KH2 PO, 1.2 MgSO4, 25 NaHCO3 and was equilibrated with 95% O2 and 5% CO2.
Samples were incubated for 15 min at 25° C. and then rapidly filtered under vacuum through Whatman GFB filters and washed. Filters were transferred to scintillation vials and NE 260 miscellar scintillation fluid (3.5 ml) was added prior to scintillation counting (at 40% efficiency). Competition binding curves including up to eight concentrations of test antagonist were constructed and IC50 values determined. Hill plots made from each set of data were linear with Hill coefficients (nh) […] to 1.0 and inhibitor constants (Ki values) were derived from IC50 values.

[5] = biological target: T3, α2-binding sites; test: Saturation binding of [^3 H]-RX 781094 in rat cerebral cortex, Scatchard analysis; settings: 0.1-35 nM radioligand, n=4
Experimental: as §3, with “mg/ml.” for “mg/ml. The physiological salt solution had the following composition (nM): 118 NaCl, 4.8 KCl, 1.3 CaCl2, 1.2 KH2 PO, 1.2 MgSO4, 25 NaHCO3 and was equilibrated with 95% O2 and 5% CO2.”

`CN1CCN2c3ccccc3Cc3ccccc3C2C1` (stereo not shown) [Mianserin HCl] was tested, and the “i.v. dose of antagonist causing 50% reversal of clonidine block on vas deferens” value ([1]; pithed rat) was greater than 4.4 mg/kg.
`CN1CCN2c3ccccc3Cc3ccccc3C2C1` (stereo not shown) [Mianserin] was tested, and the “maximum reversal of the inhibitory effects of clonidine on hypogastric nerve stimulation” value ([1]; pithed rat, cumulative intravenous dose of 4.4 mg/kg) was 36%.
Work on `CC1(C2=NCCN2)COc2ccccc2O1` (stereo not shown) [B, 2-[2-(2-methyl-1,4-benzodioxanyl)]-2-imidazoline, reference compound] yielded a Pre/postsynaptic ratio [2] of 871.
In the case of `COC1(C2=NCCN2)COc2ccccc2O1` (racemic) [Example 1, 2-[2-(2-Methoxy-1,4-benzodioxanyl)]-2-imidazoline], the Kb ([3]; rat anococcygeus muscle, vs noradrenaline, mean of minimum 5 experiments, read-out: Postsynaptic antagonism pA2 vs Noradrenaline (anococcygeus) (converted)) is reported as 63.1 nM, the “presynaptic α2 antagonist potency in the pithed rat (in words)” value ([1]; compounds of Table 3) is reported as “clearly the most potent presynaptic α2 -adrenoreceptor antagonist” and the “i.v. dose of antagonist causing 50% reversal of clonidine block on vas deferens” value ([1]; pithed rat) is reported as 0.002 mg/kg. For the same molecule, the Ki [4] was 0.8 ± 0.05 nM, the “presynaptic α2 antagonist activity relative to the unsubstituted compound (A)” value ([2]; Table 2, relative to compound A) was roughly 10 times and the “presynaptic α2 antagonist activity relative to the 2-methyl compound (B)” value ([2]; Table 2, relative to compound B) was 10 times. The “presynaptic α2-adrenoreceptor antagonist potency and selectivity (in words)” value ([2]; compounds of Table 2) was “most potent presynaptic α2 -adrenoreceptor antagonist; also recorded: extremely selective for presynaptic sites”, the Pre/postsynaptic ratio [2] was 776 and the Kb ([2]; rat vas deferens, 0.1 Hz stimulation, vs clonidine, mean of minimum 5 experiments, read-out: Presynaptic antagonism pA2 vs Clonidine (vas deferens) (converted)) was 0.0794 nM.
Work on `c1ccc2c(c1)OCC(C1=NCCN1)O2` (stereo not shown) [[^3 H]-RX 781094, 2-[2-(1,4-benzodioxanyl)]-2-imidazoline] yielded a Bmax [5] of 147±36 f moles/mg protein.
In the case of `Cc1ccc(N(CC2=NCCN2)c2cccc(O)c2)cc1` [Phentolamine mesylate], the “i.v. dose of antagonist causing 50% reversal of clonidine block on vas deferens” value ([1]; pithed rat) is reported as 0.12 mg/kg.
`COC1(C2=NCCN2)COc2ccccc2O1` (single isomer, unassigned; (-)) [R, (-)-2-[2-(2-methoxy-1,4-benzodioxanyl)]-2-imidazoline] was tested, and the “activity of the enantiomers (in words)” value ([4]; listed as R isomer) was “almost inactive” and the Ki [4] was 256 ± 59 nM.
Molecule `c1ccc2c(c1)OCC(C1=NCCN1)O2` (stereo not shown) [A, 2-[2-(1,4-benzodioxanyl)]-2-imidazoline, reference compound] has a Kb [3] of 631 nM.
`COC(=O)[C@@H]1[C@H]2C[C@H]3c4[nH]c5ccccc5c4CCN3C[C@@H]2CC[C@@H]1O` [Yohimbine HCl] was tested, and the “i.v. dose of antagonist causing 50% reversal of clonidine block on vas deferens” value ([1]; pithed rat) was 0.86 mg/kg.
With `COC1(C2=NCCN2)COc2ccccc2O1` (single isomer, unassigned) [S, 2-[2-(2-methoxy-1,4-benzodioxanyl)]-2-imidazoline] the “potency of the S isomer relative to the racemate (in words)” value ([4]; from Table 4) was “twice as potent as the racemate”, the “activity of the enantiomers (in words)” value ([4]; listed as (+) enantiomer) was “all the activity resided in the (+) enantiomer” and the “activity of the enantiomers (in words)” value ([4]; listed as S isomer) was “the active form”. The Ki [4] was 0.36 ± 0.07 nM.
